The text below walks through data of patent publication US5270316A, “Condensed purine derivatives” (Kyowa Hakko Kogyo Co., Ltd., priority 1989, dated 1993).

Like-named read-outs stand apart in the source and are kept apart here. Some results are limits rather than exact numbers.

A short description of series [1]: Diuretic activity (oral, urine collected for 6 hours). In kind it is in vivo, rat (Wistar male rats). The note with it: Rattus norvegicus, rats; for response vs control in vivo at 25 mg/kg: 25 mg/kg oral; for response vs control in vivo at 6.25 mg/kg: 6.25 mg/kg oral. As to the method: Wistar male rats weighing 150 to 300 g were used after they were fasted for 18 hours. A test compound or saline (control) was orally administered to rats and urine was collected for 6 hours. The test was performed using 3 groups per the test compound, and each group consists of 3 animals. The urine was metered by a measuring cylinder and electrolytes (Na^+ and K^+) in the urine were assayed with a flame photometer (model […] manufactured by Hitachi Ltd.). Parameters in Table 3 are all expressed by relative value for control.

The subject of the next series is trachea. Briefly: Passive Schultz-Dale reaction (bronchodilatory effects), relaxation of sensitized trachea strips. Also on record: species or system guinea pig (Hartley male). The note with it: Cavia porcellus; sensitized guinea pig trachea, EWA 1 μg/ml, 37° C.; read-out: Passive S-D reaction IC50 (concentration of 50% relaxation rate). As to the method:
Guinea pigs were passively sensitized as follows. […] After 24 hours, the guinea pigs were stunned and exsanguinated, and then trachea was excised. The zig-zag strips of the trachea were prepared by the method of Emmerson and Mackay [J. Pharm. […] After the contraction curves reached plateau the compounds were successively added in order to get cumulative concentration-relaxation curves.

A further series concerns Experimental asthma. Briefly: Experimental asthma (collapse time after antigen aerosol). In kind it is in vivo, guinea pig (Hartley male). The note with it: 50 mg/kg oral, passively sensitized guinea pigs, 1.5% EWA aerosol; control 254 ± 18. As to the method: Guinea pigs were passively sensitized as follows. Hartley male guinea pigs weighing 350 to 500 g were intraperitoneally injected with 1 ml of rabbit anti-egg alubmin (EWA) serum prepared by the method of Koda et al. [Folia pharmacol., Japon, 66, 237 (1970)]. The animals were treated with intraperitoneal injection of diphenhydramine (20 mg/kg) and propranolol (5 mg/kg), 30 minutes before administration of test compounds. 17 hours after the sensitization, the test compounds (50 mg/kg) or saline (control) were orally administered to sensitized animals. After one hour from the administration of the test compounds, the guinea pigs were placed in plastic observation box and were exposed to an aerosal antigen of 1.5% EWA.
The time until the onset of respiratory distress-like symptom [collapse time (second)] was measured as a result of experimental asthma.

Series [2] can be described thus: Acute toxicity, minimum lethal dose (oral, mice). In kind it is in vivo. The note with it: male dd-mice, mortality observed for seven days. As to the method:
The compounds were orally administrated to male dd-mice weighing 20±1 g. Minimum lethal dose (MLD) was determined by observing the mortality for seven days after the administration.

The conditions of series [3]: J. Med. Chem., 23, 1188 (1980); cited from earlier work.
The subject of series [4] is Glycerol-induced Renal Deficient Model. Put plainly: Renal protecting activity (glycerol-induced renal deficient model): serum creatinine and urea nitrogen. The note with it: 10 mg/kg intraperitoneal, rats, 24 hours after glycerol injection, own control beside each compound; for Creatinine in serum, glycerol treated, test compound administrated: normal control 0.50. In kind it is in vivo, rat (Wistar male rats). As to the method:
It is well known that subcutaneous or intramuscular administration of glycerol to rat induce acute renal insufficiency characterized by renal tubular disturbance [Can J. Physiol.
Wistar male rats (fasted both food and water for 18 hours) were used. A test compound or saline (control) was intraperitoneally administered (dose: 10 mg/kg) to rats. After 30 minutes rats were anesthesized with ether and the back skin was picked up and 0.8 ml/100 g of 50% glycerol was subcutaneously administered. 24 hours after the glycerol injection, the rats were anesthesized with ether and 5 ml of the blood was collected from the descending aorta. To obtain the serum, after allowing it to stand for 30 minutes or longer, the blood sample was centrifuged at 3000 rpm for 10 minutes. Creatinine in the serum sample was determined using autoanalyzer (AU510, Olympus) or clinical analysis kit of creatinine (Creatinine Test Wako; by Wako Pure Chemical Ind., Japan). Urea nitrogen in the serum was determined using autoanalyzer (AU510; made by Olympus Optical Co., Ltd, Japan) or clinical analysis kit of urea nitrogen (Urea nitrogen test wako; by Wako Pure Chemical Ind., Japan).

The test system of series [5] is Platelet Activating Factor (PAF)-induced mortality. Briefly: Inhibition of Platelet Activating Factor (PAF)-induced mortality. The settings on record: Mus musculus, 2 h, oral, mice, one hour before PAF 40 μg/kg i.v., p<0.05 vs control, read-out: PAF-induced mortality inhibition, minimum effective dose (MED). In kind it is in vivo, mouse (male dd mice). As to the method:
The experiment was performed by a minor modification of method of Carlson et al. [Agents and Actions, 21, 379 (1987)]. Groups each consisting of 10 male dd mice (weighing 28 to 32 g) were used, and 100 mg/kg of test compound or a saline (control) was orally administrated. One hour after the administration of test compound, 40 μg/kg of PAF (manufactured by Avanti Polar Lipids Co., Ltd.) was intravenously administered. Two hours after PAF injection, the mortality rate of the animals was observed.

The mark [6] stands for this setting: relative value for control (1.00), read-out: Na+/K+.
The mark [7] stands for this setting: relative value for control, read-out: Excretion of K+.
Setting [8] is: relative value for control, read-out: Excretion of Na+.
Setting [9] is: relative value for control, read-out: Urine volume.

As for `CCCN1C(=O)N2C(=NCC2c2ccccc2)c2c1ncn2C` (stereo not drawn) [Compound 5, 1-Methyl-7-phenyl-4-n-propyl-1,4,7,8-tetrahydro-5H-imidazo[2,1-i]purin-5-one], the response vs control in vivo at 25 mg/kg in series [1] (setting [6]) was 167%; in series [1] (setting [7]) it was 77%; in series [1] (setting [8]), 197%; in series [1] (setting [9]), 165%. Also, the IC50 in the series with trachea came to 32 µM. Besides, the “Experimental asthma, collapse time” value in the series with Experimental asthma is 542 ± 36 s. In addition, the “Minimum lethal dose (MLD)” value in series [2] was more than 300 mg/kg.
As to `O=C1N2CCN=C2c2[nH]cnc2N1Cc1ccc(Cl)cc1` [formula (A)], the bronchodilatory effect entry in series [3] is given as “slight bronchodilatory effect”.
Consider `CCCN1C(=O)N2CCN=C2c2[nH]cnc21` [Compound 2, 4-n-Propyl-1,4,7,8-tetrahydro-5H-imidazo[2,1-i]purin-5-one], for which the “Creatinine in serum, glycerol treated, test compound administrated” value in series [4] amounted to 1.63 ± 0.19 mg/dL. Also, in the series with trachea, the IC50 turned out to be 21 µM. Moreover, the “Experimental asthma, collapse time” value in the series on Experimental asthma stood at 552 ± 20 s. The minimal effective dose in series [5] is 100 mg/kg.
As for `Cn1cnc2c1C1=NCCN1C(=O)N2Cc1ccccc1` [10 Sa], in the series on trachea, the IC50 was found to be 9.7 µM. In addition, the “Experimental asthma, collapse time” value in the series on Experimental asthma was found to be 357 ± 65 s. Also, the “Minimum lethal dose (MLD)” value in series [2] is reported as more than 300 mg/kg.
On to `CCCN1C(=O)N2CC(c3ccccc3)N=C2c2[nH]c(C3CCCC3)nc21` (stereo not drawn) [15 Sa], for which, in series [4], the “Creatinine in serum, glycerol treated, test compound administrated” value worked out at 2.34 ± 0.12 mg/dL. Further, the “Urea nitrogen in serum, glycerol treated, test compound administrated” value in series [4] (normal control 15.2) turned out to be 101.8 ± 11.8 mg/dL. For the same compound, the response vs control in vivo at 6.25 mg/kg turned out to be 232% in series [1] (setting [6]), 9% in series [1] (setting [7]), 153% in series [1] (setting [8]) and 137% in series [1] (setting [9]). In addition, the response vs control in vivo at 25 mg/kg was determined as 151% in series [1] (setting [6]), 26% in series [1] (setting [7]), 90% in series [1] (setting [8]) and 95% in series [1] (setting [9]). In the series on trachea, the IC50 was more than 40 µM. The minimal effective dose in series [5] was found to be 100 mg/kg. Besides, the “Minimum lethal dose (MLD)” value in series [2] is more than 300 mg/kg.
Turning to `Cn1c(=O)c2[nH]cnc2n(C)c1=O` [Theophylline, reference compound], the IC50 with trachea was 23 µM. The “Experimental asthma, collapse time” value in the series with Experimental asthma came to 414 ± 47 s. The minimal effective dose in series [5] was determined as 100 mg/kg.
Take `CCCN1C(=O)N2CC(C(C)C)N=C2c2[nH]c(C3CCCC3)nc21` (stereo not drawn) [13 Sa]: the response vs control in vivo at 6.25 mg/kg was found to be 163% in series [1] (setting [6]), 18% in series [1] (setting [7]), 92% in series [1] (setting [8]) and 140% in series [1] (setting [9]). The “Experimental asthma, collapse time” value with Experimental asthma is 374 ± 76 s.
